Data published in patent US8242160B2, “Inhibitors of ubiquitin E1” (The United States of America, as represented by the …, priority 2005, dated 2012).
Read-outs that look alike come from different tables or passages of the source.

Columns and labels:
GST-Mdm2 = test: Standard Mdm2 in vitro ubiquitination assay (E1+E2+E3), gel-based with 32P-labeled ubiquitin; assay type: biochemical
Excerpt: The ability of a compound to inhibit E1 activity may also be examined by determining the ability of the compound to inhibit Mdm2 autoubiquitination, which is dependent on E1, as well as E2. For in vitro assays Mdm2 can be expressed as a GST fusion. This allows for a high level of expression of protein that can be purified on glutathione Sepharose. Detection of ubiquitination of Mdm2 can be accomplished, for example, using ^32P-labeled ubiquitin, Western blotting with anti-ubiquitin, or by looking at a shift in the molecular weight of GST fusion by Western blotting with anti-GST. A variety of in vitro assays that measure levels of self-ubiquitinated Mdm2 can be employed, such as for example, immunoprecipitation of ubiquitinated Mdm2; gel assays wherein the amount of ubiquitinated Mdm2 is measured by densitometric scanning or where covalent attachment of radio-labeled or otherwise tagged ubiquitin to Mdm2 or p53 is measured; Western blot analysis, or other known techniques such as ELISA, immunoprecipitation, RIA, and the like. […]

[1] = system: untransformed retinal pigment epithelial cells; test: Growth of untransformed RPE cells, MTT assay; assay type: cell-based
Excerpt: FIG. 6A depicts the induction of growth arrest in untransformed RPE cells by 4-[4-(5-nitro-furan-2-ylmethylene)-3,5-dioxo-pyrazolidin-1-yl]-benzoic acid methyl […], as measured by MTT assay.
While p53 induces apoptotic cell death in many tumor cells, it generally only induces growth arrest in untransformed cells. This has been the rationale for many studies targeting the p53 system.

With COC(=O)c1ccc(N2NC(=O)/C(=C/c3ccc([N+](=O)[O-])o3)C2=O)cc1 [E1-41, 4-[4-(5-nitro-furan-2-ylmethylene)-3,5-dioxo-pyrazolidin-1-yl]-benzoic acid methyl acid] the “Mdm2 autoubiquitination in vitro (high molecular weight species)” value (GST-Mdm2) was “prevent generation of high molecular weight species promoted by Mdm2 in a dose-dependent manner”, the “Mdm2 autoubiquitination in vitro (high molecular weight species)” value (GST-Mdm2; listed as compound 41) was “inhibits autoubiquitination of Mdm2 in vitro” and the “effect on growth of untransformed retinal pigment epithelial cells” value [1] was “causes growth arrest”.
